How the values were obtained:
[1] = system: transplanted tumor of human breast cancer cell MDA-MB-231; assay: MDA-MB-231 transplanted tumor in nude mice
Description: (§1) Then cell concentration was adjusted to 1×10^7/ml with matrigel, then each nude mouse was inoculated subcutaneously with 0.2 ml of cells at its right armpit and recorded as the first day of inoculation. When the tumor grows to be greater than or equal to 100 mm^3, the mice were randomly divided into 11 groups with 6 mice in each group: a model group, a cyclophosphamide group, isovaleryl spiramycin I groups with doses of 25, 50 and 100 mg/kg, isovaleryl spiramycin II groups with doses of 25, 50 and 100 mg/kg, and isovaleryl spiramycin III groups with doses of 25, 50 and 100 mg/kg. Each group was continuously administered intragastrically for 30 days with a dose of 20 ml/kg. The mice were sacrificed the next day after drug withdrawal and the indicators were tested. The long diameter and short diameter of the tumor, and the body weight of each mouse were recorded every 3 days from drug administration to nude mouse sacrifice.
(§2) The body weight of the nude mice and the long diameter (a) and short diameter (b) of the transplanted tumor were measured every 3 days, and the tumor volume (v), relative tumor volume (RTV) and relative tumor proliferation rate (T/C) are calculated respectively according to the following formulas, wherein V=a×b^2/2; RTV=V/V0 (V0 is the tumor volume before administration, V is the tumor volume before sacrifice), and T/C (%)=treatment group RTV/model control group RTV×100%.
(§3) Each mouse was weighed and sacrificed. After the tumor was completely stripped off from the body of the mouse, the non-tumor tissues such as blood stains and fat were removed to weigh the tumor and calculate the tumor growth inhibition rate. The average tumor weight of each group of mice is used as an indicator of efficacy. Tumor growth inhibition rate (%)=(1−the average tumor weight of the treatment group/the average tumor weight of the model group)×100%.

[2] = system: transplanted tumor of human glioma cell U251; assay: U251 transplanted tumor in nude mice; conditions: for Tumor Volume (mm3) (d 1): d1
Description: as §1, with “U251 cells in a logarithmic growth phase were taken and subjected to a trypan blue exclusion experiment showing that the cell viability was more than 95%, then the cells were subjected to trypsinization, centrifugation, and supernatant removal. Then” for “Then”
as §2, §3

[3] = system: transplanted tumor of HL60 cells; assay: HL-60 transplanted tumor in nude mice; conditions: for Tumor Volume (mm3) (d30): d 30
Description: as §1, with “HL-60 cells in a logarithmic growth phase were taken and subjected to a trypan blue exclusion experiment showing that the cell viability was more than 95%, then the cells were subjected to trypsinization, centrifugation, and supernatant removal. Then” for “Then”, “group:” for “group: a model group, a cyclophosphamide group,”, “the” for “the body”
as §2, §3

[4] = MDA-MB-231, 25 mg/kg (low dose) i.g. 30 days
[5] = MDA-MB-231, 50 mg/kg (medium dose) i.g. 30 days
[6] = MDA-MB-231, 100 mg/kg (high dose) i.g. 30 days
[7] = U251, high dose (100 mg/kg in method) i.g. 30 days
[8] = U251, low dose (25 mg/kg in method) i.g. 30 days
[9] = U251, medium dose (50 mg/kg in method) i.g. 30 days
[10] = HL-60, high dose (100 mg/kg in method) i.g. 30 days
[11] = HL-60, low dose (25 mg/kg in method) i.g. 30 days
[12] = HL-60, medium dose (50 mg/kg in method) i.g. 30 days

mouse weight compared with the model group ([1]; mouse, in vivo): no significant changes
mouse weight compared with the model group ([2]; mouse, in vivo): no significant changes
mouse weight compared with the model group ([3]; mouse, in vivo): no significant changes
Structure (SMILES): CCC(=O)O[C@@H]1CC(=O)O[C@H](C)C/C=C/C=C/[C@H](O[C@H]2CC[C@H](N(C)C)[C@@H](C)O2)[C@H](C)C[C@H](CC=O)[C@H](O[C@@H]2O[C@H](C)[C@@H](O[C@H]3C[C@@](C)(O)[C@@H](OC(=O)CC(C)C)[C@H](C)O3)[C@H](N(C)C)[C@H]2O)[C@H]1OC [Isovaleryl spiramycin III, isovaleryl spiramycin III]
Inhibition Rate (tumor growth inhibition rate) [1, 4]: 24.35%
Relative Tumor Proliferation Rate (T/C) [1, 4]: 68.36%
Relative Tumor Volume (RTV) [1, 4]: 10.68 ± 2.47
Tumor Volume (d 1) [1, 4]: 114.53 ± 6.52 mm3
Tumor Volume (d 30) [1, 4]: 1217.28 ± 267.06 mm3
Tumor Weight [1, 4]: 1.76 ± 0.20 g
Inhibition Rate (tumor growth inhibition rate) [1, 5]: 52.01%
Relative Tumor Proliferation Rate (T/C) [1, 5]: 50.12%
Relative Tumor Volume (RTV) [1, 5]: 7.83 ± 2.97
Tumor Volume (d 1) [1, 5]: 112.00 ± 10.40 mm3
Tumor Volume (d 30) [1, 5]: 860.48 ± 286.44 mm3
Tumor Weight [1, 5]: 1.11 ± 0.54 g
Inhibition Rate (tumor growth inhibition rate) ([1]; MDA-MB-231, 50 mg/kg (medium dose) i.g. 30 days, listed as isovaleryl spiramycin III): 21.01%
Inhibition Rate (tumor growth inhibition rate) [1, 6]: 62.93%
Relative Tumor Proliferation Rate (T/C) [1, 6]: 35.27%
Relative Tumor Volume (RTV) [1, 6]: 5.51 ± 2.72
Tumor Volume (d 1) [1, 6]: 115.76 ± 7.04 mm3
Tumor Volume (d 30) [1, 6]: 647.02 ± 338.62 mm3
Tumor Weight [1, 6]: 0.86 ± 0.44 g
tumor volume and relative tumor volume compared with the model group ([1]; MDA-MB-231, low, medium and high doses, P<0.05): significantly lower
Relative Tumor Proliferation Rate (T/C) [2, 7]: 41.10%
tumor growth inhibition rate [2, 7]: 59.56%
Relative Tumor Proliferation Rate (T/C) [2, 8]: 68.16%
tumor growth inhibition rate [2, 8]: 15.45%
tumor volume and relative tumor volume compared with the model group ([2]; U251, low, medium and high doses, P<0.05): significantly lower
Relative Tumor Proliferation Rate (T/C) [2, 9]: 54.34%
tumor growth inhibition rate [2, 9]: 32.74%
Inhibition Rate (%) ([2]; U251 nude mice, 25 mg/kg): 15.45%
Relative Tumor Proliferation Rate (T/C) ([2]; U251 nude mice, 25 mg/kg): 68.16%
Relative Tumor Volume (RTV) ([2]; U251 nude mice, 25 mg/kg): 13.47 ± 1.67
Tumor Weight ([2]; U251 nude mice, 25 mg/kg): 1.17 ± 0.11 g
Tumor Volume (mm3) (d 1) ([2]; U251 nude mice, 25 mg/kg): 124.24 ± 10.18 mm3
Tumor Volume (mm3) (d30) ([2]; U251 nude mice, 25 mg/kg): 1413.41 ± 221.90 mm3
Inhibition Rate (%) ([2]; U251 nude mice, 50 mg/kg): 32.74%
Relative Tumor Proliferation Rate (T/C) ([2]; U251 nude mice, 50 mg/kg): 54.34%
Relative Tumor Volume (RTV) ([2]; U251 nude mice, 50 mg/kg): 12.63 ± 1.27
Tumor Weight ([2]; U251 nude mice, 50 mg/kg): 0.93 ± 0.12 g
Tumor Volume (mm3) (d 1) ([2]; U251 nude mice, 50 mg/kg): 121.24 ± 9.15 mm3
Tumor Volume (mm3) (d30) ([2]; U251 nude mice, 50 mg/kg): 1096.57 ± 173.49 mm3
Inhibition Rate (%) ([2]; U251 nude mice, 100 mg/kg): 59.56%
Relative Tumor Proliferation Rate (T/C) ([2]; U251 nude mice, 100 mg/kg): 41.10%
Relative Tumor Volume (RTV) ([2]; U251 nude mice, 100 mg/kg): 10.96 ± 0.82
Tumor Weight ([2]; U251 nude mice, 100 mg/kg): 0.56 ± 0.05 g
Tumor Volume (mm3) (d 1) ([2]; U251 nude mice, 100 mg/kg): 120.86 ± 6.34 mm3
Tumor Volume (mm3) (d30) ([2]; U251 nude mice, 100 mg/kg): 832.79 ± 182.98 mm3
Body Weight (g) (d1) ([2]; mouse, in vivo, 25 mg/kg): 20.96 ± 0.58 g
Body Weight (g) (d30) ([2]; mouse, in vivo, 25 mg/kg): 20.70 ± 0.51 g
Body Weight (g) (d1) ([2]; mouse, in vivo, 50 mg/kg): 21.25 ± 0.53 g
Body Weight (g) (d30) ([2]; mouse, in vivo, 50 mg/kg): 21.10 ± 0.60 g
Body Weight (g) (d1) ([2]; mouse, in vivo, 100 mg/kg): 21.33 ± 0.62 g
Body Weight (g) (d30) ([2]; mouse, in vivo, 100 mg/kg): 21.03 ± 0.55 g
Relative Tumor Proliferation Rate (T/C) [3, 10]: 39.87%
tumor growth inhibition rate [3, 10]: 55.05%
Relative Tumor Proliferation Rate (T/C) [3, 11]: 76.09%
tumor growth inhibition rate [3, 11]: 17.10%
tumor volume and relative tumor volume compared with the model group ([3]; HL-60, low, medium and high doses, P<0.05): significantly lower
Relative Tumor Proliferation Rate (T/C) [3, 12]: 61.90%
tumor growth inhibition rate [3, 12]: 29.92%
Inhibition Rate (%) ([3]; dose 25 mg/kg): 17.10%
Relative Tumor Proliferation Rate (T/C) ([3]; dose 25 mg/kg): 76.09%
Relative Tumor Volume (RTV) ([3]; dose 25 mg/kg): 8.56 ± 1.82
Tumor Weight ([3]; dose 25 mg/kg): 1.88 ± 0.25 g
Tumor Volume (mm3) (d 1) ([3]; dose 25 mg/kg): 184.12 ± 22.53 mm3
Tumor Volume (mm3) (d30) ([3]; dose 25 mg/kg): 1543.27 ± 190.73 mm3
Inhibition Rate (%) ([3]; dose 50 mg/kg): 29.92%
Relative Tumor Proliferation Rate (T/C) ([3]; dose 50 mg/kg): 61.90%
Relative Tumor Volume (RTV) ([3]; dose 50 mg/kg): 6.96 ± 2.25
Tumor Weight ([3]; dose 50 mg/kg): 1.59 ± 0.45 g
Tumor Volume (mm3) (d 1) ([3]; dose 50 mg/kg): 189.31 ± 24.59 mm3
Tumor Volume (mm3) (d30) ([3]; dose 50 mg/kg): 1308.87 ± 436.30 mm3
Inhibition Rate (%) ([3]; dose 100 mg/kg): 55.05%
Relative Tumor Proliferation Rate (T/C) ([3]; dose 100 mg/kg): 39.87%
Relative Tumor Volume (RTV) ([3]; dose 100 mg/kg): 4.48 ± 2.94
Tumor Weight ([3]; dose 100 mg/kg): 1.01 ± 0.41 g
Tumor Volume (mm3) (d 1) ([3]; dose 100 mg/kg): 188.01 ± 27.66 mm3
Tumor Volume (mm3) (d30) ([3]; dose 100 mg/kg): 789.65 ± 404.78 mm3
Body Weight (g) (d1) ([3]; mouse, in vivo, 25 mg/kg): 20.60 ± 1.57 g
Body Weight (g) (d30) ([3]; mouse, in vivo, 25 mg/kg): 20.67 ± 1.51 g
Body Weight (g) (d1) ([3]; mouse, in vivo, 50 mg/kg): 20.82 ± 1.42 g
Body Weight (g) (d30) ([3]; mouse, in vivo, 50 mg/kg): 20.59 ± 1.36 g
Body Weight (g) (d1) ([3]; mouse, in vivo, 100 mg/kg): 20.2l ± l .87 g
Body Weight (g) (d30) ([3]; mouse, in vivo, 100 mg/kg): 20.25 ± 1.22 g
